Measurements taken from patent publication US20260234144A1 (TAY THERAPEUTICS LIMITED, priority 2023, published 2026).

Test system: R223X stop codon in the mutated luciferase gene, ADXC8 luciferase reporter cell line
Experiment: cells
Format: cell-based
Conditions: ADXC8 cells, 24 hours; for Emax / EC (100% of 200 uM G418 response): 24 h; for Emax: read-out: Fold Over Control, maximum fold response relative to 200 μM G418; for EC (100% of 200 uM G418 response): read-out: pC100%, negative logarithm of the concentration giving the same response as 200 μM G418
Protocol: The read-through activity of compounds was assessed using the ADXC8 luciferase reporter cell line (generated as described in McElroy et al. PLoS Biology (2013), 11, e1001593). […] The amount of luciferase is measured by adding a lysis buffer containing luciferin substrate and detecting luminescence using the following protocol:
ADXC8 cells in assay media (DMEM+10% FBS) were seeded into 96-well tissue culture treated white plates (Greiner) to a density of 13,000 cells per well and incubated for 24 hours at 37° C. in an atmosphere of 5% CO2. […] Plates were incubated for a further 24 hours at 37° C. in an atmosphere of 5% CO2. Cells treated with 200 μM G418 (with 1% DMSO) were used as a positive control.
Cell viability and firefly luciferase activity were measured in the same assay wells. CellTiter-Fluor™ reagent was prepared as per manufacturer's instructions (Promega E7120) and 20 μl of 5× CellTiter-Fluor™ reagent was added to all wells, briefly mixed by orbital shaking (300-500 rpm for −30 seconds) and the plates incubated for 30-45 minutes at 37° C. in an atmosphere of 5% C02. Cell viability was measured by monitoring fluorescence on a CLARIOstar® plate reader (BMG Labtech). Cells containing 1% DMSO were used as a positive control and cells with 400 μM Doxorubicin were used as negative control to define 100 and 0% respectively. ONE-Glo™ luciferase assay buffer (Promega E7120) was prepared according to manufacturer's instructions and 100 μl of luciferase reagent was added to each well and the plate incubated at RT for 3 mins before measuring the luminescence on the CLARIOstar® plate reader (BMG Labtech). Cells treated with 200 μM G418 (with 1% DMSO) were used as a positive control and arbitrarily assigned a value of 100%. Cells treated with 1% DMSO were used as the negative control to define 0% response.
Concentration effect curves were analysed using non-linear regression using the CDD Vault from Collaborative Drug Discovery (Burlingame, CA). […] The bottom and top of the curves were constrained to 0 and the maximum measured response respectively. From the fitted curves, the software derived C100% values (the concentration giving the same response as 200 μM G418) for each compound. The negative logarithm of C100% is reported as pC100% (Table 1). In addition to pC100% values, the maximum fold response relative to 200 μM G418 (Fold over Control) was also captured (Table 1). A pC100% categorisation of ‘-’ in Table 1 represents examples in which a pC100% response was not reached when assayed at a concentration of 100 μM. A pC100% categorisation of ‘*’ in Table 1 represents examples in which a pC100% response was not reached when assayed at a concentration of 30 μM.

SMILES	Emax	EC (100% of 200 uM G418 response)	Fold Over Control (maximum fold response relative to 200 μM G418)	pC100% (negative logarithm of the concentration giving the same response as 200 μM G418)
COCCN1CC[C@@H](Nc2nc(N)c3c(C)cc(C)nc3n2)C1 [Example 223, (R)—N^2-(1-(2-methoxyethyl)pyrrolidin-3-yl)-5,7-dimethylpyrido[2,3-d]pyrimidine-2,4-diamine]	100 to 3000%	10 to 100 µM		
CN1CCC(Nc2nc(N)c3ccc(-c4cc(F)ccc4F)nc3n2)CC1 [Example 69]	100 to 3000%	1 to 10 µM		
Cc1cc(C)c2c(N)nc(NCCCN3CCC4(CCOCC4)C3)nc2n1 [Example 189]	0 to 100%	> 31.6 µM		
CN1CCC(Nc2nc(N)c3ccc(N(C)C)nc3n2)CC1 [Example 36, N^7,N^7-dimethyl-N^2-(1-methylpiperidin-4-yl)pyrido[2,3-d]pyrimidine-2,4,7-triamine]	100 to 3000%	10 to 100 µM		
Cc1cnc2nc(NC3CCN(C)CC3)nc(N)c2c1 [Example 4, 6-methyl-N^2-(1-methylpiperidin-4-yl)pyrido[2,3-d]pyrimidine-2,4-diamine]	100 to 3000%	10 to 100 µM		
CN1CCC(Nc2nc(N)c3ccc(-c4ccccc4C(F)(F)F)nc3n2)CC1 [Example 90]	100 to 3000%	10 to 100 µM		
Cc1cc(C)c2c(N)nc(N[C@@H]3CCN(Cc4ccc(C#N)cc4)C[C@@H]3F)nc2n1 [Example 575]	100 to 3000%	10 to 100 µM		
CNc1nc(NC2CC3CC2CN3C)nc2nc(C)cc(C)c12 (single isomer, unassigned) [Example 432]			## (Fold over Ctrl > 1 ≤ 30)	++ (pC100% > 5.0 ≤ 6.0)
Cc1cc(C)c2c(N)nc(N[C@@H]3CN[C@H](C)C3)nc2n1 [Example 348]	100 to 3000%	10 to 100 µM		
CNc1nc(N[C@H]2CN(C3CCC3)C[C@@H]2O)nc2nc(C)cc(C)c12 [Example 624]	100 to 3000%	1 to 10 µM		
Cc1cc(C)c2c(N)nc(NC3CCN(Cc4c[nH]cn4)CC3)nc2n1 [Example 491]	100 to 3000%	10 to 100 µM		
CNc1c(C)c(N[C@@H]2CCN(C)C2)nc2nc(C)cc(C)c12 [Example 620]	0 to 100%	> 31.6 µM		
Cc1cc(C)c2c(N)nc(N[C@H]3CNC[C@H]3C)nc2n1 [Example 351]		1 to 10 µM		
CN1CCC(Nc2nc(N)c3c(N(C)C)ccnc3n2)CC1 [Example 307]	0 to 100%	> 100 µM		
COc1ccc2c(N)nc(NC3CCN(C)CC3)nc2n1 [Example 17, 7-methoxy-N^2-(1-methylpiperidin-4-yl)pyrido[2,3-d]pyrimidine-2,4-diamine]	100 to 3000%	10 to 100 µM		
CN1CCC(Nc2nc(N)c3cc(-c4ncco4)cnc3n2)CC1 [Example 645]	0 to 100%	> 100 µM		
Cc1c2c(nc3nc(NC4CCN(Cc5ccn[nH]5)CC4)nc(N)c13)CCC2 [Example 662]	100 to 3000%	1 to 10 µM		
CNc1cc(C)c2c(NC)nc(N[C@@H]3CCN(C)C3)nc2n1 [Example 524, (R)—N^4,N^7,5-trimethyl-N^2-(1-methylpyrrolidin-3-yl)pyrido[2,3-d]pyrimidine-2,4,7-triamine]	100 to 3000%	1 to 10 µM		
CNc1nc(N[C@@H]2CCNC2)nc2nc(C)c(Br)c(C)c12 [Example 331]	100 to 3000%	0.1 to 1 µM		
Cc1nc2nc(NC3CCNCC3)nc(N)c2c2c1CCC2 [Example 556]	100 to 3000%	0.1 to 1 µM		
[2H]C([2H])([2H])Nc1nc(N[C@H]2CN(C)C[C@@H]2O)nc2nc3c(c(C)c12)CCC3 [Example 509, (3S,4S)-1-(methyl-d3)-4-((5-methyl-4-((methyl-da)amino)-7,8-dihydro-6H-cyclopenta[5,6]pyrido[2,3-d]pyrimidin-2-yl)amino)pyrrolidin-3-ol]		0.01 to 0.1 µM		
CNc1nc(N[C@H]2CN(C)C[C@H]2C)nc2nc(C)cc(C)c12 [Example 379]	100 to 3000%	1 to 10 µM		

SMILES	Emax	EC (100% of 200 uM G418 response)	Fold Over Control (maximum fold response relative to 200 μM G418)	pC100% (negative logarithm of the concentration giving the same response as 200 μM G418)
CNc1nc(N[C@H]2CN(C)C[C@@H]2O)nc2nc(C)c(C)c(C)c12 [Example 520, (3S,4S)-1-methyl-4-((5,6,7-trimethyl-4-(methylamino)pyrido[2,3-d]pyrimidin-2-yl)amino)pyrrolidin-3-ol]	100 to 3000%	0.1 to 1 µM		
Cc1ccc(-c2ccc3c(N)nc(NC4CCN(C)CC4)nc3n2)cc1 [Example 101]		1 to 10 µM		
COCc1ccnc2nc(NC3CCN(C)CC3)nc(N)c12 [Example 248, 5-(methoxymethyl)-N^2-(1-methylpiperidin-4-yl)pyrido[2,3-d]pyrimidine-2,4-diamine]	0 to 100%	> 100 µM		
CNc1nc(NC2CNCC23COC3)nc2nc(C)cc(C)c12 (stereo not shown) [Example 410]	0 to 100%	> 31.6 µM		
CNc1nc(N[C@H]2CN(C)C[C@@H]2OC(=O)C(C)(C)C)nc2nc3c(c(C)c12)CCC3 [Example 681]	100 to 3000%	0.1 to 1 µM		
CC(O)c1cnc2nc(NC3CCN(C)CC3)nc(N)c2c1 (stereo not shown) [Example 126, 1-{4-amino-2-[(1-methylpiperidin-4-yl)amino]pyrido[2,3-d]pyrimidin-6-yl}ethanol]	0 to 100%	> 100 µM		
Cc1cc(C)c2c(NCCC(N)=O)nc(NC3CCN(C)CC3)nc2n1 [Example 329]	0 to 100%	> 31.6 µM		
CNc1nc(N[C@H]2CN[C@@H](COC)C2)nc2nc(C)cc(C)c12 [Example 406]		1 to 10 µM		
CN1CCC(Nc2nc(N)c3ccc(OC4CCC4)nc3n2)CC1 [Example 33, 7-cyclobutoxy-N^2-(1-methylpiperidin-4-yl)pyrido[2,3-d]pyrimidine-2,4-diamine]	100 to 3000%	10 to 100 µM		
Cc1cc(C)c2c(NCCN(C)C)nc(NC3CCN(C)CC3)nc2n1 [Example 270]	100 to 3000%	1 to 10 µM		
Cc1cc(C)c2c(N)nc(NC3CCN(CC4CCC4)CC3)nc2n1 [Example 454]	100 to 3000%	1 to 10 µM		
Cc1cc(C)c2c(NCCN)nc(NC3CCN(C)CC3)nc2n1 [Example 315]	0 to 100%	> 31.6 µM		
CNc1cc(N[C@H]2CN(C)C[C@H]2O)nc2nc3c(c(C)c12)CCC3 [Example 619]	100 to 3000%	1 to 10 µM		
[2H]C([2H])(c1ccc(C#N)cc1)N1CCC(Nc2nc(N)c3c(C)cc(C)nc3n2)CC1 [Example 507, 4-((4-((4-amino-5,7-dimethylpyrido[2,3-d]pyrimidin-2-yl)amino)piperidin-1-yl)methyl-d2)benzonitrile]	100 to 3000%	0.1 to 1 µM		
CCCNc1nc(N[C@@H]2CCN(C)C2)nc2nc(C)cc(C)c12 [Example 390]	100 to 3000%	1 to 10 µM		
Cc1cc(C)c2c(NC3CCCC3)nc(N[C@@H]3CCNC3)nc2n1 [Example 324]	0 to 100%	> 31.6 µM		
Cc1cc(C)c2c(N)nc(NC3CCN(C(C)c4ccccc4)CC3)nc2n1 (single isomer, unassigned) [Example 502]	100 to 3000%	0.1 to 1 µM		
Cc1cccc(CN2CCC(Nc3nc(N)c4c(C)cc(C)nc4n3)CC2)c1 [Example 549]	100 to 3000%	1 to 10 µM		
Cc1ccccc1-c1ccc2c(N)nc(NC3CCN(C)CC3)nc2n1 [Example 110]		1 to 10 µM		
CNc1nc(N[C@H]2CN(C)C[C@H]2O)nc2nc(C)cc(C)c12 [Example 359]	100 to 3000%	10 to 100 µM		
CN1CCC(Nc2nc(N)c3ccc(C4CCCC4)nc3n2)CC1 [Example 310]		1 to 10 µM		
CN1CCC(Nc2nc(N)c3c(n2)nc(-c2ccccc2)c2ccccc23)CC1 [Example 31, N^3-(1-methylpiperidin-4-yl)-6-phenylpyrimido[4,5-c]isoquinoline-1,3-diamine]	100 to 3000%	1 to 10 µM		
